Source: patent US20140296316A1, “HYDRATE AND CRYSTAL OF FLUORENE COMPOUNDS” (JAPAN TOBACCO INC., priority 2013, published 2014)

Experiments:
human PDHK1 (hPDHK1) = target: T1, human PDHK1 (hPDHK1) (Homo sapiens, UniProt Q15118); test: Inhibitory action of PDHK1 activity in vitro (residual PDH activity after kinase reaction); format: biochemical; details: PDH/hPDHK1 complex, PDHK reaction 45 min at room temperature
T1 construct: made in house; host or cells: Escherichia coli BL21(DE3), pET17b vector
T1 sequence (Q15118 29-436): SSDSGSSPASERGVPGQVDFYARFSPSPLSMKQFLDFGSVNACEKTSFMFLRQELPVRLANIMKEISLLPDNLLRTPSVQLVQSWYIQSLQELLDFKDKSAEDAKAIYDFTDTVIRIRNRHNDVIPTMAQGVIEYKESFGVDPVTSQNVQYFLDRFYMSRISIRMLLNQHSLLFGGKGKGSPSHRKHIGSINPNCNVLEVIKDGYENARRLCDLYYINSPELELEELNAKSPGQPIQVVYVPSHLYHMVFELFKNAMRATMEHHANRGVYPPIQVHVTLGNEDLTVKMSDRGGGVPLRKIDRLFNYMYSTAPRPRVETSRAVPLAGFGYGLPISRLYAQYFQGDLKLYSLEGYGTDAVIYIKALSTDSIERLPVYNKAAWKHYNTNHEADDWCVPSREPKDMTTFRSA
Description: (§1) The inhibitory action of PDHK activity was assessed indirectly by measuring the residual PDH activity after kinase reaction in the presence of a test compound.
In the case of human PDHK1 (hPDHK1, Genbank Accession No. L42450.1), a 1.3 kbp fragment encoding this protein was isolated from human liver cDNA by polymerase chain reaction (PCR). Modified hPDHK1 cDNA wherein FLAG-Tag sequence was added to the N terminus was prepared by PCR and cloned into a vector (pET17b-Novagen). The recombinant construct was transformed into Escherichia coli (DH5α-TOYOB0). The recombinant clones were identified, and plasmid DNA was isolated and subjected to the DNA sequence analysis. One clone which had the expected nucleic acid sequence was selected for expression work. […]
Then, 10 μL of substrates (5 mmol/L sodium pyruvate, 5 mmol/L Coenzyme A, 12 mmol/L NAD, 5 mmol/L thiamin pyrophosphate, diluted with buffer) were added. The mixture was incubated at room temperature for 90 min, and the residual PDH activity was measured.
The absorbance at 340 nm before and after PDH reaction was measured using a microplate reader to detect NADH produced by the PDH reaction. The hPDHK1 inhibition rate (%) of the test compound was calculated from the formula [{(PDH activity of the test compound−PDH activity of control)/PDH activity of blank−PDH activity of control)}×100]. […]

[1] = Water adsorption and desorption test; format: physicochemical; details: for hygroscopicity: conclusion of the water adsorption and desorption test; for hygroscopicity / moisture absorption under relative humidity 95%: without pre-drying
Description: Water adsorption and desorption test was performed using a water equilibrium measuring apparatus (SGA-100, manufactured by VTI).
A water adsorption and desorption test was performed by the following method.
Method 1 (without Pre-Drying):
Form I crystal (about 10 mg) was weighed in a quartz cell, and a weight change ratio was measured when it reached equilibrium at 25° C. and each relative humidity, by using a water equilibrium measuring apparatus (SGA-100, manufactured by VTI).
Test temperature: 25° C. Equilibrating conditions: weight change ratio was not more than 0.03% in 5 min Maximum equilibrating time: 180 min Change of relative humidity: increased from 5% to 95% at 5% intervals, and decreased from 95% to 5% at 5% intervals. Method 2 (with Pre-Drying):
Form I crystal (about 10 mg) was weighed in a quartz cell, dried under a dried nitrogen stream at 60° C., and a weight change ratio was measured when it reached equilibrium at 25° C. and each relative humidity, by using a water equilibrium measuring apparatus (SGA-100, manufactured by VTI).
Test temperature: 25° C. Equilibrating conditions: weight change ratio was not more than 0.03% in 5 min Maximum equilibrating time: 180 min Change of relative humidity: increased from 5% to 95% at 5% intervals, and decreased from 95% to 5% at 5% intervals.
In the water adsorption and desorption test, the measurement was performed under two conditions of “with pre-drying (drying before test)” and “without pre-drying (drying before test)”, wherein humidification and drying were repeated once. […] Therefore, it was assumed that pre-drying completely evaporated crystal water.

[2] = Water adsorption and desorption test; format: physicochemical; details: for weight decrease on pre-drying: pre-dried under a dried nitrogen stream, 60° C.; for weight increase by humidification after drying: with pre-drying, humidification up to relative humidity 10%, 25° C.
human PDHK2 (hPDHK2) = target: T2, human PDHK2 (hPDHK2) (Homo sapiens, UniProt Q15119); test: Inhibitory action of PDHK2 activity in vitro (residual PDH activity after kinase reaction); format: biochemical; details: PDH/hPDHK2 complex, PDHK reaction 45 min at room temperature
T2 construct: made in house; host or cells: Escherichia coli BL21(DE3), pET17b vector
Description: as §1
The recombinant construct was transformed into Escherichia coli (DB5α-TOYOBO). The recombinant clones were identified, and plasmid DNA was isolated and subjected to the DNA sequence analysis. One clone which had the expected nucleic acid sequence was selected for expression work.
For expression of hPDHK2 activity, Escherichia coli strain BL21(DE3) cells (Novagen) were transformed with the pET17b vector containing modified hPDHK2 cDNA. The Escherichia coli were grown to an optical density 0.6 ([…]) at 30° C. Protein expression was induced by the addition of 500 μmol/L isopropyl-β-thiogalactopyranoside. […]
0.05 U/mL PDH and 0.8 μg/mL hPDHK2 were mixed in a buffer (50 mmol/L 3-morpholinopropanesulfonic acid (pH 7.0), 20 mmol/L dipotassium hydrogen phosphate, 60 mmol/L potassium chloride, 2 mmol/L magnesium chloride, 0.4 mmol/L EDTA, and 0.2% Pluronic F-68, 2 mmol/L dithiothreitol), and the mixture was incubated at 4° C. overnight to obtain a PDH/hPDHK2 complex. […] The mixture was incubated at room temperature for 90 min, and the residual PDH activity was measured. The absorbance at 340 nm before and after PDH reaction was measured using a microplate reader to detect NADH produced by the PDH reaction. […]

Row | Compound | IC50 (human PDHK1 (hPDHK1)) [nM] | hygroscopicity [1] | moisture absorption under relative humidity 95% ([1]; 25° C.) | weight decrease on pre-drying [2] [%] | weight increase by humidification after drying [2] [%] | IC50 (human PDHK2 (hPDHK2)) [nM] | weight decrease on pre-drying ([1]; pre-dried under a dried nitrogen stream, 60° C.) [%] | weight increase by humidification after drying ([1]; with pre-drying, humidification up to relative humidity 50%, 25° C.) [%]
1 | CC(CO)(CO)n1cc(-c2cc(F)cc3c2-c2ccccc2[C@]3(O)C(F)(F)F)cn1 [Form I crystal of compound (Ah), 0.5 hydrate of 2-{4-[(9R)-2-fluoro-9-hydroxy-9-(trifluoromethyl)-9H-fluoren-4-yl]-pyrazol-1-yl}-2-methyl-propane-1,3-diol] | 26 | does not have hygroscopicity | remarkable moisture absorption was not found | 2.15 | 2.44 | 14 | – | –
2 | Cc1cc(-c2cnn(C(CO)(CO)CO)c2)c2c(c1)[C@@](O)(C(F)(F)F)c1ccccc1-2 [Form IVb crystal of compound (Bh), 2 hydrate of 2-hydroxymethyl-2-{4-[(9R)-9-hydroxy-2-methyl-9-(trifluoromethyl)-9H-fluoren-4-yl]-pyrazol-1-yl}-propane-1,3-diol] | – | does not have hygroscopicity | remarkable moisture absorption was not found | – | – | 20 | 7.75 | 7.93
3 | CC(CO)(CO)n1cc(-c2cc(F)cc3c2-c2ccccc2[C@]3(O)C(F)(F)F)cn1 [Form V crystal of compound (Ah), 0.5 hydrate of 2-{4-[(9R)-2-fluoro-9-hydroxy-9-(trifluoromethyl)-9H-fluoren-4-yl]-pyrazol-1-yl}-2-methyl-propane-1,3-diol] | – | does not have hygroscopicity | remarkable moisture absorption was not found | 2.36 | 2.46 | – | – | –
